Reference: publication PMC6374920, “Synthesis and biological evaluation of 3-arylcoumarins as potential anti-Alzheimer's disease agents” (Journal of Enzyme Inhibition and Medicinal Chemistry, 2019)

How the values were obtained:
BuChE from horse serum = BuChE from horse serum (Equus caballus, UniProt P81908); conditions: for IC50: read-out: IC50 value BuChE inhibitory activity, BuChE from horse serum, mean ± SD (n = 3)
Procedure: (§1) The anticholinesterase activity of the 3-arylcoumarin compounds was determined by the method of Ellman et al.[25] with slight modifications. AChE inhibitory activities were determined by AChE from electric eel (Macklin). BuChE inhibitory activities were determined by BuChE from horse serum (Aladdin). To a 10 ml tube, 2.65 ml of phosphate buffer solution (0.1 M, pH = 8.0), 100 µL of 5,5-dithiobis-2-nitrobenzoic acid (0.75 mM in 0.1 M phosphate buffer solution, pH = 8.0) were added sequentially, 50 µL AChE solution (0.2 U/mL in 0.1 M phosphate buffer solution, pH = 8.0), 100 µL of different concentrations of the sample solution, shaken well, and incubated at 37 °C for 5 min. Then 100 µL of substrate (1.5 mM in 0.1 M phosphate buffer solution, pH = 8.0) were added, shaken well, and incubated at 37 °C for 20 min. After the reaction was completed, 1 ml of sodium lauryl sulphate (4%, SDS in water) was added. […] Determination of the inhibitory activity of BuChE is similar. The sample blank group replaced the substrate with PBS, and the blank group replaced the sample solution with a solvent. The sample solution was set to five concentration gradients and the experiment was repeated three times. […] Cholinesterase inhibitory effect (%)=[A0−(A1−A2)]/A0×100% where A0 is the absorbance of blank group; A1 is the absorbance of sample group; A2 is the absorbance of sample blank group.

MAO-B = target: T1, MAO-B (Rattus norvegicus, UniProt P19643); assay: In vitro monoamine oxidase inhibitory activity (Holt method, crude enzyme from rat liver); format: biochemical; conditions: crude enzyme from Wistar rat liver; mean ± SD (n = 3)
T1 construct: The crude enzyme was extracted from the liver of 200–250 g of Wistar rats; from tissue; host or cells: Wistar rat liver, crude enzyme extract
T1 sequence (P19643 1-520): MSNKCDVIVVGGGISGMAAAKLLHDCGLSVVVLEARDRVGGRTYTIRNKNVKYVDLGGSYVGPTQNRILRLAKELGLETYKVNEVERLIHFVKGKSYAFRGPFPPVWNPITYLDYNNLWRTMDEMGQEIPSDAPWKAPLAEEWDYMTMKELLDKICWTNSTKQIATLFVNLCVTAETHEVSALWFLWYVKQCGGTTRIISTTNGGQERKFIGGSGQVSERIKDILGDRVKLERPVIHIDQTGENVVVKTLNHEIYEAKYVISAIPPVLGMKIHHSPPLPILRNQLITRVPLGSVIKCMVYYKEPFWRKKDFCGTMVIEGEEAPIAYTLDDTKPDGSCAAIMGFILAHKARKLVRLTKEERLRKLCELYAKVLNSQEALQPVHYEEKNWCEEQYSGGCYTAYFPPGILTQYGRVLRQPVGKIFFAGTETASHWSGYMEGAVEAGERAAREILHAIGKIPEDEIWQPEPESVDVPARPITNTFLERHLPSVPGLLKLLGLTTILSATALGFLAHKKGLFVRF
Procedure: The MAO inhibitory activity of the 3-arylcoumarin compounds was determined by the method of Holt et al.[26] with slight modifications. The crude enzyme was extracted from the liver of 200–250 g of Wistar rats according to literature methods. The crude enzyme protein content was determined by the Bradford/method using a Bradford Protein Assay Kit (Beyotime). Forty microlitres of enzyme solution and 40 µL of sample solution were added to a 96-well plate. The solution was then incubated at 37 °C for 20 min. One-twenty microlitres of the 4-(trifluoromethyl) benzylamine solution and 40 µL of the chromogenic agent (1 mmol/L vanillic acid, 0.5 mmol/L 4-aminoantipyrine, 4U/mL horseradish peroxidase, 0.2 M pH = 7.6 PBS constant volume) were added subsequently, and incubated at 37 °C for 90 min. The absorbance was measured at 490 nm using a microplate reader, and the inhibition rate of MAO and the IC50 value of each sample were calculated according to the formula. The control group replaced the sample solution with PBS (0.2 M, pH = 7.6), the positive control replaced the sample with the positive drug, and the blank group replaced the substrate with PBS, and each group was measured three times in parallel to average. Monoamineoxidase inhibitory effect (%)=[(AC−AB)−(AS−ASB)]/(AC−AB)×100% where AC is the absorbance of control group; AB is the absorbance of blank group; AS is the absorbance of sample group; ASB is the absorbance of sample blank group.
MAO plays an important role in neurotransmitter inactivation, and MAO dysfunction is considered to be the cause of many mental and neurological diseases. MAO plays an important role in AD pathology, and the progress of AD has a close correlation with MAO activity[35]^,[36]. All the synthesised compounds were evaluated for their MAO inhibitory activity in the way of Holt[26] by references. […] The MAO used in the experiment was self-made.

[1] = In vitro antioxidant activity, FRAP assay; conditions: FeSO4 as standard; mean ± SD (n = 3)
Procedure: The total antioxidant capacity of the 3-arylcoumarin compounds was measured by the FRAP (the Ferric Reducing Ability of Plasma) assay of Benzie et al.[29] with slight modifications. This method is based on the reduction of colourless Fe(III)-TPTZ(2,4,6-Tris(2-pyridyl)-s-triazine) complex to coloured Fe(II)-TPTZ complex by the compounds. FRAP working solution (300 mmol/L acetate buffer, 10 mmol/L TPTZ, 20 mmol/LFeCl3) was ready to use. A hundred microlitres of the sample solution was added to 3 ml of FRAP reagent and then incubated at 37 °C for 15 min. The experiments were repeated for three times. The absorbance was measured at 593 nm to clarify the changes. The standard curve was drawn with FeSO4 as standard material, and the regression equation was obtained. With 1.0 mmol/L FeSO4 as standard, the antioxidant activity of the sample is expressed in millimoles of […] required to achieve the same absorbance.

AChE from electric eel = AChE from electric eel (Electrophorus electricus, UniProt O42275); conditions: read-out: IC50 value AChE inhibitory activity, mean ± SD (n = 3)
Procedure: as §1

Chain of BuChE from horse serum (P81908 whole entry): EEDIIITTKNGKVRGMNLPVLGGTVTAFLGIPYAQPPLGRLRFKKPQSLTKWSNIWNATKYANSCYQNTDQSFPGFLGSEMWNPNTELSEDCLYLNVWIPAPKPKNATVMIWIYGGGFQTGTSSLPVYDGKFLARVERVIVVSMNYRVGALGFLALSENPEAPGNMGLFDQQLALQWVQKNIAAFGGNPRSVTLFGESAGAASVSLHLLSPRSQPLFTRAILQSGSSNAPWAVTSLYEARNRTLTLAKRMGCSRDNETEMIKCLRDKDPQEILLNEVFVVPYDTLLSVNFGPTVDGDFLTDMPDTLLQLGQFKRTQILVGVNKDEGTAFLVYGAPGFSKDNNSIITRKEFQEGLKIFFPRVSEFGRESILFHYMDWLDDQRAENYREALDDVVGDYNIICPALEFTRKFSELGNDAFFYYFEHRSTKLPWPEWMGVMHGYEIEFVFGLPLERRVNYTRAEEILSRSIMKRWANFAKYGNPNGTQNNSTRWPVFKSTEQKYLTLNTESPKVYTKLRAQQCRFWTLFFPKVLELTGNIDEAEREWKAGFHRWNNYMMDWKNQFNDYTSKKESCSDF
Chain of AChE from electric eel (O42275 24-633): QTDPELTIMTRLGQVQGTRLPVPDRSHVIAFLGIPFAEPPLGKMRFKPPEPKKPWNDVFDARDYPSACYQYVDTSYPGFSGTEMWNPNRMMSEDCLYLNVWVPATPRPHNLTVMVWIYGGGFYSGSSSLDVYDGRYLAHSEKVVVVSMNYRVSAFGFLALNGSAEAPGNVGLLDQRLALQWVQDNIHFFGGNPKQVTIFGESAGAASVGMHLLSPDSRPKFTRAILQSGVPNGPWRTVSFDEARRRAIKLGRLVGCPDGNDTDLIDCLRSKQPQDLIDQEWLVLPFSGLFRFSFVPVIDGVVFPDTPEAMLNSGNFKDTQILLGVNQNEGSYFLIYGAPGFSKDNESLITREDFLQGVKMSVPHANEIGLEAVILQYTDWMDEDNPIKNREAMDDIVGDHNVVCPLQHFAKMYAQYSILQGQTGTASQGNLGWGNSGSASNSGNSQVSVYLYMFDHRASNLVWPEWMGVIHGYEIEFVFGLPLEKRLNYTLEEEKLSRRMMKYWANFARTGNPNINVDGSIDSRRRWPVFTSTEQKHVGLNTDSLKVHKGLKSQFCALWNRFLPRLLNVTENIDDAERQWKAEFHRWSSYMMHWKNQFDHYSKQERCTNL

Compound | IC50 (BuChE from horse serum) [µM] | IC50 (MAO-B) [µM] | FRAP value Antioxidant activity [1] [mmol/g] | selectivity BuChE over AChE (in words) (BuChE from horse serum; BuChE vs AChE inhibition) | IC50 (AChE from electric eel) [µM]
O=c1oc2cc(O)ccc2cc1-c1ccc(O)cc1 [Compound 4] | 34.7 ± 1.87 | > 700 | 7.73 ± 0.12 | – | –
O=c1oc2cc(O)ccc2cc1-c1ccccc1 [Compound 5] | 14.4 ± 1.94 | > 700 | 0.42 ± 0.01 | selective BuChE inhibitory activity | –
O=C1O[C@H]([C@@H](O)CO)C(O)=C1O [Ascorbic Acid, reference compound] | – | – | 3.79 ± 0.08 | – | –
O=c1oc2ccccc2cc1-c1ccc(O)cc1 [Compound 1] | 44.8 ± 2.35 | > 700 | 0.51 ± 0.09 | – | 78.5 ± 2.84
COc1ccc(-c2cc3ccc(O)cc3oc2=O)cc1 [Compound 9] | 30.1 ± 3.06 | > 700 | 0.67 ± 0.04 | – | –
COc1ccc2cc(-c3ccc(O)cc3)c(=O)oc2c1 [Compound 13] | 70.7 ± 5.75 | > 700 | 0.61 ± 0.11 | – | 42.4 ± 3.16
